Experiments:
Experiment in all cases: relative viability (nuclei count vs DMSO), 5 days (fraction); higher = more cells survive
[1] = compound: COc1cc2nccc(Oc3ccc(NC(=O)C4(C(=O)Nc5ccc(F)cc5)CC4)cc3)c2cc1OC [Cabozantinib] + CC(=O)c1c(C)c2cnc(Nc3ccc(N4CCNCC4)cn3)nc2n(C2CCCC2)c1=O [Palbociclib] (partner 0.5 µM)
Method in brief: (§1)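 Each reported value is a median over duplicate plates. It expresses relative viability: treated-well nuclei count divided by vehicle-well nuclei count. Lung cancer cell lines in 1536-well plates were dosed by pin tool a day after seeding, alone with one drug or with a fixed anchor-drug dose plus five library-drug doses (not always all listed) in √10 steps, and nuclei were counted after 5 days.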

[2] = compound: COc1cc2nccc(Oc3ccc(NC(=O)C4(C(=O)Nc5ccc(F)cc5)CC4)cc3)c2cc1OC [Cabozantinib] + C[C@]1(O)C[C@@H](c2nc(-c3ccc4ccc(-c5ccccc5)nc4c3)c3c(N)nccn32)C1 [Linsitinib] (partner 1 µM)
Method in brief: as §1

[3] = compound: COc1cc2nccc(Oc3ccc(NC(=O)C4(C(=O)Nc5ccc(F)cc5)CC4)cc3)c2cc1OC [Cabozantinib] + O=C(CCCCCCC(=O)Nc1ccccc1)NO [Vorinostat] (partner 1 µM)
Method in brief: as §1

[4] = compound: O[C@@H](COc1cccc2ncccc12)CN1CCN([C@@H]2c3ccccc3[C@@H]3[C@H](c4ccccc42)C3(F)F)CC1 [Zosuquidar] + C[C@]1(O)C[C@@H](c2nc(-c3ccc4ccc(-c5ccccc5)nc4c3)c3c(N)nccn32)C1 [Linsitinib] (partner 1 µM)
Method in brief: as §1

| Cell Line | relative viability ([1]; first compound 0.02 µM) | relative viability ([1]; first compound 0.06325 µM) | relative viability ([1]; first compound 0.2 µM) | relative viability ([1]; first compound 0.6325 µM) | relative viability ([1]; first compound 2 µM) | relative viability ([2]; first compound 0.02 µM) | relative viability ([2]; first compound 0.06325 µM) | relative viability ([2]; first compound 0.2 µM) | relative viability ([2]; first compound 0.6325 µM) | relative viability ([2]; first compound 2 µM) | relative viability ([3]; first compound 0.02 µM) | relative viability ([3]; first compound 0.06325 µM) | relative viability ([3]; first compound 0.2 µM) | relative viability ([3]; first compound 0.6325 µM) | relative viability ([3]; first compound 2 µM) | relative viability ([4]; first compound 0.01 µM) | relative viability ([4]; first compound 0.03162 µM) | relative viability ([4]; first compound 0.1 µM) | relative viability ([4]; first compound 0.3162 µM) | relative viability ([4]; first compound 1 µM) |
| --- | --- | --- | --- | --- | --- | --- | --- | --- | --- | --- | --- | --- | --- | --- | --- | --- | --- | --- | --- | --- |
| LXF-289 | 0.582 | 0.625 | 0.532 | 0.618 | 0.559 | 1.02 | 0.966 | 0.971 | 0.983 | 0.94 | 0.755 | 0.765 | 0.659 | 0.738 | 0.756 | 0.888 | 1 | 0.94 | 0.981 | 1.03 |
| BEN | 0.525 | 0.507 | 0.47 | 0.425 | 0.463 | 0.906 | 0.993 | 0.974 | 0.795 | 0.597 | 0.562 | 0.567 | 0.565 | 0.554 | 0.518 | 1.05 | 0.896 | 0.766 | 0.859 | 0.936 |
| LCLC-97TM1 | 0.189 | 0.228 | 0.221 | 0.253 | 0.222 | – | 0.187 | 0.2 | 0.195 | 0.204 | 0.24 | 0.823 | 0.739 | 0.781 | 0.751 | 0.204 | 0.177 | – | 0.174 | 0.171 |
| NCI-H1993 | 0.661 | 0.537 | 0.461 | 0.571 | 0.437 | 0.776 | 0.722 | 0.712 | 0.69 | 0.718 | 0.553 | 0.723 | 0.63 | 0.64 | 0.831 | 0.707 | 0.783 | 0.698 | 0.695 | 0.706 |
| LCLC-103H | 0.492 | 0.463 | 0.464 | 0.434 | 0.435 | 1.21 | 1.01 | 1.07 | 0.986 | 1.05 | 0.762 | 0.906 | 0.892 | 0.791 | 0.736 | 1.13 | 1.17 | 1.05 | 0.912 | 1.03 |
| HCC-78 | – | 0.444 | 0.413 | 0.467 | 0.435 | 0.428 | 0.423 | 0.194 | 0.261 | 0.193 | – | 0.415 | 0.394 | 0.344 | 0.295 | 0.67 | 0.556 | – | 0.486 | 0.542 |
| NCI-H1975 | 0.533 | 0.777 | 0.647 | 0.418 | 0.557 | 1 | 1.09 | 0.895 | 0.965 | 0.898 | 0.754 | 0.833 | 0.773 | 0.728 | 0.651 | 0.928 | 0.905 | 1.07 | 1.01 | 1.02 |

— the supplement of paper PMC10307832
